The target of data set [1] is cDNA-expressed human hepatic CYP3A4 (Homo sapiens (Human), UniProt P08684). The experiment in a line: Measurement of CYP (IC50 of P450 CYP3A4), BFC substrate. In kind it is in vitro ADME. The note with it: 20 minutes. The method, boiled down:
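cDNA-expressed human CYP3A4 supersomes in 0.1M potassium phosphate pH 7.4 with 8.3 mM MgCl2, 1.67 mM EDTA and 0.25 mM NADPH; compounds in acetonitrile (<1% final). Reaction started with 30 µM BFC, 20 min at 37. 7-Hydroxy-4-trifluoromethyl-coumarin read by fluorescence (ex 409/em 530 nm).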

Data set [2] deals with MV-4-11 (human, Acute Myeloid Leukemia cell line) cells. The experiment in a line: Cell growth inhibition assay, GI50 of MV-4-11. In kind it is cell-based. Conditions: Homo sapiens, MV4-11, 72 h, MV-4-11 cells. The method, boiled down: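 GI50 derived from 490 nm absorbance using CellTiter 96 Aqueous One reagent, with compound-free medium providing the background. Human AML MV-4-11 cells, seeded at 5×10^4 per well in IMDM/10% FBS, incubated 72 h at 37 °C with duplicate serial dilutions of test compound.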

Here are results for 36 compounds from patent US8940739B2, “Compound of a reverse-turn mimetic and a production method and use therefor” (JW Pharmaceutical Corporation, priority 2010, dated 2015).

cDNA-expressed human hepatic CYP3A4, sequence (P08684 whole entry): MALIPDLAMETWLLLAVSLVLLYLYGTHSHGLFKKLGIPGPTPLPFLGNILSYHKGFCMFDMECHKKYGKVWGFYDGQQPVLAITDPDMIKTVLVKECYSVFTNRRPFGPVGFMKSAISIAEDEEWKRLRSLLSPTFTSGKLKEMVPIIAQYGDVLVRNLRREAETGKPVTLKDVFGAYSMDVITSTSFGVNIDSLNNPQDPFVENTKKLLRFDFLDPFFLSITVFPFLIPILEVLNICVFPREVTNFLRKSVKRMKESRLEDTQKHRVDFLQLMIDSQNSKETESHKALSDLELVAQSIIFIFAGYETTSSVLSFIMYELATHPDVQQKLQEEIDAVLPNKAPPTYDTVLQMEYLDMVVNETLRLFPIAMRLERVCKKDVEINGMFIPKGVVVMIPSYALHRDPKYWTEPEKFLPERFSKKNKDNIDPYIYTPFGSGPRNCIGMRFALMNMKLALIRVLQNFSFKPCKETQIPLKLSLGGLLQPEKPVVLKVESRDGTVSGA

For orientation: IC50 means the concentration that inhibits the measured activity by half. By GI50 is commonly meant the concentration giving 50% growth inhibition. Higher therefore signals lower sensitivity of the cells. Take `C=CCN1CC(=O)N2[C@@H](Cc3ccc(O)cc3)C(=O)N(Cc3cccc4c(-c5ccc(NC(=O)c6ccc(NC)cc6)cc5)cn(C)c34)C[C@@H]2N1C(=O)NCc1ccccc1` [Compound D-56]: the IC50 in data set [1] was greater than 25 µM. In data set [2], halving of growth (GI50) required 0.0125 µM.
For `C=CCN1CC(=O)N2[C@@H](Cc3ccc(O)cc3)C(=O)N(Cc3cccc4c(-c5ccc(C#N)cc5)cn(C)c34)C[C@@H]2N1C(=O)NCc1ccccc1` [Compound H-2], in that order: 9.33 µM and 0.0178 µM.
For `C=CCN1CC(=O)N2C(Cc3ccc(O)cc3)C(=O)N(Cc3cccc4c(C(=O)Nc5ccc(NCC(C)(C)C)nc5)cn(C)c34)CC2N1C(=O)NCc1ccccc1` (stereo not drawn) [Compound G-22], in that order: 2.38 µM and 0.0014 µM.
Take `C=CCN1CC(=O)N2[C@@H](Cc3ccc(O)cc3)C(=O)N(Cc3cccc4c(C(=O)NC5CCN(C(=O)c6ccc(N7CCN(C)CC7)cc6)CC5)cn(C)c34)C[C@@H]2N1C(=O)NCc1ccccc1` [Compound F-67]: in data set [1], half-maximal inhibition (IC50) required 9.65 µM. Besides, in data set [2], halving of growth (GI50) required 0.0025 µM.
On to `C=CCN1CC(=O)N2C(Cc3ccc(O)cc3)C(=O)N(Cc3cccc4c(C(=O)Nc5ccc(NCCCN6CCCC6)nc5)cn(C)c34)CC2N1C(=O)NCc1ccccc1` (stereo not drawn) [Compound G-32], for which the IC50 in data set [1] was found to be 2.57 µM. This compound also came in with a concentration for 50% growth inhibition (GI50) in data set [2] of 0.0119 µM.
For `C=CCN1CC(=O)N2[C@@H](Cc3ccc(O)cc3)C(=O)N(Cc3cccc4c(-c5ccc(NC(=O)Nc6ccc(OC)cc6)cc5)cn(C)c34)C[C@@H]2N1C(=O)NCc1ccccc1` [Compound D-76], in that order: 9.48 µM and 0.0158 µM.
For `C=CCN1CC(=O)N2[C@@H](Cc3ccc(O)cc3)C(=O)N(Cc3cccc4c(C(=O)N5CCC(N6CCOCC6)CC5)cn(C)c34)C[C@@H]2N1C(=O)NCc1ccccc1` [Compound E-65], in that order: 2.11 µM and 0.013 µM.
The compound `C=CCN1CC(=O)N2[C@@H](Cc3ccc(O)cc3)C(=O)N(Cc3cccc4c(C(=O)N(C)CCCO)cn(C)c34)C[C@@H]2N1C(=O)NCc1ccccc1` [Compound F-5] returned a concentration for half-maximal inhibition (IC50) in data set [1] of 3.68 µM. This compound also showed a 50% growth inhibitory concentration (GI50) in data set [2] of 0.016 µM.
In data set [1], `C=CCN1CC(=O)N2[C@@H](Cc3ccc(O)cc3)C(=O)N(Cc3cccc4c(-c5ccc(NC(=O)c6ccc(N(C)C)cc6)cc5)cn(C)c34)C[C@@H]2N1C(=O)NCc1ccccc1` [Compound D-51] had a 50% inhibitory concentration (IC50) greater than 25 µM. The GI50 in data set [2] turned out to be 0.0054 µM.
For `C=CCN1CC(=O)N2[C@@H](Cc3ccc(O)cc3)C(=O)N(Cc3cccc4c(-c5ccc(C(=O)N(C)C)o5)cn(C)c34)C[C@@H]2N1C(=O)NCc1ccccc1` [Compound D-102], in that order: 3.42 µM and 0.0016 µM.
For `C=CCN1CC(=O)N2[C@@H](Cc3ccc(O)cc3)C(=O)N(Cc3cccc4c(C(=O)N5CCC(OC)CC5)cn(C)c34)C[C@@H]2N1C(=O)NCc1ccccc1` [Compound E-52], in that order: 3.3 µM and 0.0092 µM.
For `C=CCN1CC(=O)N2[C@@H](Cc3ccc(O)cc3)C(=O)N(Cc3cccc4c(-c5ccc(C(=O)NNC(C)(C)C)cc5)cn(C)c34)C[C@@H]2N1C(=O)NCc1ccccc1` [Compound D-34], in that order: 3.41 µM and 0.0012 µM.
In turn, `C=CCN1CC(=O)N2[C@@H](Cc3ccc(O)cc3)C(=O)N(Cc3cccc4c(C(=O)Nc5ccc(OC)cc5)cn(C)c34)C[C@@H]2N1C(=O)NCc1ccccc1` [Compound G-3] returned a concentration for half-maximal inhibition (IC50) in data set [1] of 2.61 µM. In data set [2], this compound had a GI50 of 0.0057 µM.
For `C=CCN1CC(=O)N2[C@@H](Cc3ccc(O)cc3)C(=O)N(Cc3cccc4c(C(=O)N5CCN(C(C)C)CC5)cn(C)c34)C[C@@H]2N1C(=O)NCc1ccccc1` [Compound E-7], in that order: 2.24 µM and 0.0113 µM.
For `C=CCN1CC(=O)N2[C@@H](Cc3ccc(O)cc3)C(=O)N(Cc3cccc4c(C(=O)N5CCN(CCOC)CC5)cn(C)c34)C[C@@H]2N1C(=O)NCc1ccccc1` [Compound E-10], in that order: 9.12 µM and 0.0108 µM.
For `C=CCN1CC(=O)N2C(Cc3ccc(O)cc3)C(=O)N(Cc3cccc4c(C(=O)Nc5ccc(NCCN6CCOCC6)nc5)cn(C)c34)CC2N1C(=O)NCc1ccccc1` (stereo not drawn) [Compound G-28], in that order: 2.32 µM and 0.0056 µM.
For `C=CCN1CC(=O)N2C(CN(Cc3cccc4c(C(=O)Nc5ccc(N6CCNCC6)nc5)cn(C)c34)C(=O)[C@@H]2Cc2ccc(O)cc2)N1C(=O)NCc1ccccc1` (stereo partly drawn) [Compound G-39], the concentration for half-maximal inhibition (IC50) in data set [1] was 2.73 µM. Moreover, the concentration for 50% growth inhibition (GI50) in data set [2] amounted to 0.0113 µM.
`C=CCN1CC(=O)N2[C@@H](Cc3ccc(O)cc3)C(=O)N(Cc3cccc4c(C(=O)N5CCN(CCN6CCOCC6)CC5)cn(C)c34)C[C@@H]2N1C(=O)NCc1ccccc1` [Compound E-25] came in with a half-maximal inhibitory concentration (IC50) in data set [1] of 6.09 µM. The compound also showed a GI50 in data set [2] of 0.0204 µM.
For `C=CCN1CC(=O)N2C(Cc3ccc(O)cc3)C(=O)N(Cc3cccc4c(C(=O)Nc5ccc(N6CCN(C7CC7)CC6)nc5)cn(C)c34)CC2N1C(=O)NCc1ccccc1` (stereo not drawn) [Compound G-49], in that order: 6.94 µM and 0.0013 µM.
`C=CCN1CC(=O)N2[C@@H](Cc3ccc(O)cc3)C(=O)N(Cc3cccc4c(C(=O)N5CCN6CCCC6C5)cn(C)c34)C[C@@H]2N1C(=O)NCc1ccccc1` (stereo partly drawn) [Compound E-43] gave an IC50 in data set [1] of 6.6 µM. This compound gave a GI50 in data set [2] of 0.0151 µM.
For `C=CCN1CC(=O)N2[C@@H](Cc3ccc(O)cc3)C(=O)N(Cc3cccc4c(C(=O)Nc5ccc(N6CC(O)C6)nc5)cn(C)c34)C[C@@H]2N1C(=O)NCc1ccccc1` [Compound G-61], in that order: 4.87 µM and 0.0085 µM.
As to `C=CCN1CC(=O)N2[C@@H](Cc3ccc(O)cc3)C(=O)N(Cc3cccc4c(C(=O)N(C)CC5(CO)CC5)cn(C)c34)C[C@@H]2N1C(=O)NCc1ccccc1` [Compound F-9], in data set [1], half-maximal inhibition (IC50) required 2.53 µM. In data set [2], this compound had a GI50 of 0.0154 µM.
The compound `C=CCN1CC(=O)N2[C@@H](Cc3ccc(O)cc3)C(=O)N(Cc3cccc4c(-c5ccc(C(=O)N6CCN(S(C)(=O)=O)CC6)nc5)cn(C)c34)C[C@@H]2N1C(=O)NCc1ccccc1` [Compound D-90] yielded an IC50 in data set [1] of 6.96 µM. Further, the GI50 in data set [2] turned out to be 0.0046 µM.
For `C=CCN1CC(=O)N2[C@@H](Cc3ccc(O)cc3)C(=O)N(Cc3cccc4c(-c5ccc(NC(=O)Nc6cnccn6)cc5)cn(C)c34)C[C@@H]2N1C(=O)NCc1ccccc1` [Compound D-83], in that order: 4.61 µM and 0.0138 µM.
For `C=CCN1CC(=O)N2C(CN(Cc3cccc4c(C(=O)Nc5ccc6c(c5)OCCO6)cn(C)c34)C(=O)[C@@H]2Cc2ccc(O)cc2)N1C(=O)NCc1ccccc1` (stereo partly drawn) [Compound G-70], in that order: 2.63 µM and 0.0017 µM.
With `C=CCN1CC(=O)N2[C@@H](Cc3ccc(O)cc3)C(=O)N(Cc3cccc4c(-c5ccc(C(=O)N6CCSCC6)cc5)cn(C)c34)C[C@@H]2N1C(=O)NCc1ccccc1` [Compound D-5], inhibition in data set [1] was half-maximal at 1.76 µM (IC50). The concentration for 50% growth inhibition (GI50) in data set [2] came to 0.0022 µM.
For `C=CCN1CC(=O)N2[C@@H](Cc3ccc(O)cc3)C(=O)N(Cc3cccc4c(-c5ccc(NC(=O)N6CCOCC6)cc5)cn(C)c34)C[C@@H]2N1C(=O)NCc1ccccc1` [Compound D-59], in that order: 2.19 µM and 0.0012 µM.
`C=CCN1CC(=O)N2[C@@H](Cc3ccc(O)cc3)C(=O)N(Cc3cccc4c(-c5ccc(C(=O)Nc6ccc(N7CCOCC7)nc6)cc5)cn(C)c34)C[C@@H]2N1C(=O)NCc1ccccc1` [Compound D-12] returned an IC50 in data set [1] greater than 25 µM. In data set [2], it took 0.0021 µM to inhibit growth by half (GI50).
In data set [1], `C=CCN1CC(=O)N2C(Cc3ccc(O)cc3)C(=O)N(Cc3cccc4c(C(=O)Nc5ccc(NC6CC(C)(C)N(C)C(C)(C)C6)nc5)cn(C)c34)CC2N1C(=O)NCc1ccccc1` (stereo not drawn) [Compound G-52] displayed a concentration for half-maximal inhibition (IC50) of 7.1 µM. The compound also showed a GI50 in data set [2] of 0.013 µM.
In data set [1], `C=CCN1CC(=O)N2[C@@H](Cc3ccc(O)cc3)C(=O)N(Cc3cccc4c(C(=O)N5CCN6CCN(C(=O)OC(C)(C)C)CC6C5)cn(C)c34)C[C@@H]2N1C(=O)NCc1ccccc1` (stereo partly drawn) [Compound E-47] showed an IC50 of 2.2 µM. The same compound showed a GI50 in data set [2] of 0.0135 µM.
Consider `C=CCN1CC(=O)N2[C@@H](Cc3ccc(O)cc3)C(=O)N(Cc3cccc4c(C(=O)Nc5ccc(N(C)C)nc5)cn(C)c34)C[C@@H]2N1C(=O)NCc1ccccc1` [Compound G-15], for which, in data set [1], the 50% inhibitory concentration (IC50) is 6.75 µM. This compound also came in with a GI50 in data set [2] of 0.0012 µM.
For `C=CCN1CC(=O)N2C(Cc3ccc(O)cc3)C(=O)N(Cc3cccc4c(C(=O)Nc5ccc(N6CCN(C(C)(C)C)CC6)nc5)cn(C)c34)CC2N1C(=O)NCc1ccccc1` (stereo not drawn) [Compound G-48], in that order: 4.19 µM and 0.0013 µM.
For `C=CCN1CC(=O)N2[C@@H](Cc3ccc(O)cc3)C(=O)N(Cc3cccc4c(-c5ccc(NC(=O)c6ccc(OC)cc6)cc5)cn(C)c34)C[C@@H]2N1C(=O)NCc1ccccc1` [Compound D-49], in that order: greater than 25 µM and 0.01 µM.
For `C=CCN1CC(=O)N2[C@@H](Cc3ccc(O)cc3)C(=O)N(Cc3cccc4c(C(=O)Nc5ccc(N6CC(N7CCN(C)CC7)C6)nc5)cn(C)c34)C[C@@H]2N1C(=O)NCc1ccccc1` [Compound G-62], in that order: 4.1 µM and 0.0014 µM.
In the case of `C=CCN1CC(=O)N2[C@@H](Cc3ccc(O)cc3)C(=O)N(Cc3cccc4c(C(=O)N5CCN(C)CC5)cn(C)c34)C[C@@H]2N1C(=O)NCc1ccccc1` [Compound E-4], in data set [1], half-maximal inhibition (IC50) required 12.2 µM. In data set [2], the GI50 is 0.0112 µM.
For `C=CCN1CC(=O)N2C(Cc3ccc(O)cc3)C(=O)N(Cc3cccc4c(C(=O)Nc5ccc(N6CCN(CCO)CC6)nc5)cn(C)c34)CC2N1C(=O)NCc1ccccc1` (stereo not drawn) [Compound G-44], in that order: 6.04 µM and 0.0013 µM.
